# Data as given in paper PMC7356940, “Comparison between Colistin Sulfate Dry Powder and Solution for Pulmonary Delivery” (Pharmaceutics, 2020).
# Where a name gives a salt, the structure may show the parent alone. Where a SMILES comes first, the peptide text is derived from it. Bridges are numbered along the chain shown (N, C = ends). [ ]: non-standard residue; d: D form. The star is where a group is joined. X1 = CC[C@H](C)CCCCC(=O)*; Dab = NCC[C@H](N)C(=O)O
# How the values were obtained:
# [1] = Plasma and ELF pharmacokinetics after intratracheal administration, simultaneous PK modeling; settings: male, Sprague–Dawley, rat, in vivo, rats, 0.35 mg·kg^−1, whatever the formulation used
# Method: In vivo experiments were undertaken in compliance with EC Directive 2010/63/EU after agreement by a local ethics committee. Male Sprague–Dawley rats (n = 68) from Janvier Laboratories (Le Genest-St.-Isle, France) with weights of 324 ± 24 g (mean ± SD) were used. Animals were acclimatized for 5 days prior to experiments. They always had free access to food and water.
# The target COLI dose delivered was 0.35 mg kg^−1 (base form). This dose was previously used in our lab to investigate the pharmacokinetic properties of colistin following intratracheal administration of colistin sulfate solution in rats. […] The insufflator was weighed with a 0.01 mg accuracy scale (Sartorius KB BA100) before and after insufflation to determine the exact amount of powder delivered, and the dose of colistin administered was calculated based on the animal’s weight. […]
# Bronchoalveolar lavage fluid (BALF) collection was performed according to methods previously described. […] COLI and urea concentrations were determined in both plasma and BALF. […] Therefore, the COLI concentration in ELF(CELF) was calculated using Equation 1 from measured COLI concentrations in BALF (CBAL) by using urea as a marker of dilution. CELF = CBAL (Ureaplasma/UreaBAL)(1) where UreaBAL and Ureaplasma correspond to the concentrations of urea determined in BALF and plasma. […]
# [2] = Apical-to-basolateral COLI transport across Calu-3 monolayers; assay type: in vitro ADME; settings: human; Calu-3, air-interface 15 days, apical-to-basolateral, COLI 100 mg/L (COLI or dissolved INU-COLI particles), HBSS/10 mM HEPES pH 7.4, 6 h, LC-MS/MS; read-out: COLI apparent permeability (Papp)
# Method: (§1) Calu-3 cells were purchased from the American Type Culture Collection (Manassas, VA, USA). The cells were cultured in DMEM/Ham’s F12 (1/1) (PanBiotech) supplemented with L-glutamine (2 mM), fetal calf serum (10% v/v), and incubated at 37 °C under 90–95% of RH and 5% v/v of CO2 in the air.
# (§2) Samples were taken after 60 min at 37 °C.
# (§3) The determination of COLI plasma concentrations was performed based on a validated LC-MS/MS method previously described. The chromatography was performed on an Alliance 2695 system (Waters, France) with a Jupiter 300-Å column (5.0 µm, 50 mm, 2.0-mm i.d.; Waters, St.-Quentin en Yvelines, France) and a mobile phase (flow rate 0.2 mL/min) consisting of 0.1% (v/v) formic acid in acetonitrile–0.1% formic acid in water (25:75 v/v). The mass spectrometer Micromass Quattro microAPI (Waters, France) was used in the positive/ion mode. The calibration standard curve was prepared with seven samples in rat plasma with COLI base concentrations ranging between 0.0097 and 10 µg·mL^−1. For analysis of COLI in BALF and in the medium used for the COLI transport experiments, 150 µL of sample was mixed with 100 µL of plasma and analyzed as for plasma.
# [3] = test system: Calu-3 cell epithelium model; test: as above; assay type: in vitro ADME
# Method: as §1, §2, §3
# [4] = previous studies; cited from earlier work
# Method: The day before the experiment polyethylene catheters were implanted into the femoral artery of anesthetized rats. […] Accordingly, arterial blood samples were collected at 0, 0.25, 0.5, 1, 2, 3, and 4 h after pulmonary administration. Plasma was obtained and frozen at −80 °C.
# [5] = fixed in the PK model; cited from earlier work
# Text: Plasma and ELF COLI concentrations versus time were simultaneously analyzed by a nonlinear mixed-effects method with S-ADAPT software (v 1.52, Biomedical Simulations Resource (BMSR), Los Angeles, USA) with S-ADAPT TRAN translator [19]. The structural model (Appendix C, Figure A3) used for data analysis has been developed in a previous study to fit plasma and ELF COLI concentrations after COLI intravenous administrations and solution nebulization to rats. Briefly, the systemic pharmacokinetics of COLI were described by a two-compartment model, characterized by a central compartment (Vc ...
# [6] = test system: Calu-3 cell epithelium model; settings: cited from earlier work
# Text: COLI Papp changed as a function of COLI concentration in the Calu-3 cell monolayer apical side (Figure 5). […] This value was consistent with a previous determination (0.42 × 10^−7 cm·s^−1).
# [7] = cited from earlier work
# Text: Due to its low permeability across the lung–blood barrier, colistin methanesulfonate (CMS) is one of only four antibiotics currently used to treat Pseudomonas aeruginosa lung infections by inhalation. CMS is an anionic prodrug of colistin (COLI), which is a cationic lipopeptide mix composed mainly of two molecules: colistin A and B. Inhaled COLI therapy is almost always conducted by means of nebulization of CMS instead of the cationic COLI since the use of the latter can lead to more side effects, such as bronchoconstriction, throat irritation, and cough.
# P. aeruginosa = settings: cited from earlier work
# Text: However, CMS is not an optimal p ...
Compound,Cmax [1],Tmax [1],"Papp A→B at 6 h, 100 mg/L [2]","fold increase in COLI Papp ([3]; Calu-3, COLI concentration changed from 100 to 4000 mg/L)","fold increase in COLI Papp ([3]; Calu-3 A-B, 6 h, COLI concentration increased to 1000 mg/L (from 100 mg/L))","additional fold increase in COLI Papp ([3]; Calu-3 A-B, 6 h, further increase in COLI concentration to 4000 mg/L (from 1000 mg/L))",plasma COLI half-life [4],COLI unbound plasma fraction [5],"COLI Papp, previous determination [6]","COLI concentrations measured in the ELF ([7]; patients, six hours after inhalation of nebulized CMS solutions)",activity against P. aeruginosa (P. aeruginosa),"fraction of the CMS dose converted into COLI in the lung ([7]; human, in vivo)"
"CC[C@H](C)CCCCC(=O)N[C@@H](CCN)C(=O)N[C@H](C(=O)N[C@@H](CCN)C(=O)N[C@H]1CCNC(=O)[C@H]([C@@H](C)O)NC(=O)[C@H](CCN)NC(=O)[C@H](CCN)NC(=O)[C@H](CC(C)C)NC(=O)[C@@H](CC(C)C)NC(=O)[C@H](CCN)NC1=O)[C@@H](C)O [COLI, Colistin sulfate salt] (X1-[Dab]T[Dab][Dab][Dab][dL]L[Dab][Dab]T; lactam 4-C)",330 ng/mL,30 min,0.043 ± 0.011 ×10⁻⁶ cm/s,10 fold,4 fold,2.5 fold,30 to 40 min,45%,0.42 10^−7 cm·s^−1,greater than 1000 mg/L,–,–
colistin methanesulfonate [CMS],–,–,–,–,–,–,–,–,–,–,inactive,1.4 % (w/w)
